Reference: patent US20260242405A1, “N-DERIVATIZED SIALIC ACIDS AND RELATED SIALOSIDES” (THE REGENTS OF THE UNIVERSITY OF CALIFORNIA, priority 2023, published 2026)
Where two headings read alike, the source gives them in different places.

How the values were obtained:
[1] = biological target: NB-Aus21 (IBV neuraminidase) (Influenza B virus, UniProt A0A1X9RX69); test: biochemical; set-up: species or system influenza B virus B/Austria/1359417/2021
[2] = biological target: T1, hNEU2 (human cytosolic sialidase) (Homo sapiens, UniProt Q9Y3R4); test: Fluorescence-based inhibition assay (substrate Neu5Acα2-3GalβMU, β-galactosidase coupled); type: biochemical; conditions: inhibitor 8.0 μM
T1 construct: made in house

[3] = biological target: N1-BR18 (IAV neuraminidase) (Influenza A virus, UniProt A0A0X9QTS2); test: as above; type: biochemical, influenza A virus A/Brisbane/02/2018 (H1N1); conditions: for Percentage inhibition against N1-BR18 (IAV) / percentage inhibition against N1-BR18: inhibitor 8.0 μM; for Percentage inhibition against N1-BR18 (IAV): substrate Neu5Acα2-3GalβMU 8.0 μM; for IC50: read-out: IC50 against N1-BR18
[4] = biological target: N2-Kan17 (IAV neuraminidase) (Influenza A virus, UniProt A0A193ACB1); test: as above; type: biochemical, influenza A virus A/Kansas/14/2017 (H3N2); conditions: for inhibition at 8 µM: read-out: percentage inhibition against N2-Kan17; for percentage inhibition against N2-Kan17: inhibitor 8.0 μM, Example 3, Table 4
[5] = tested on: human, bacterial, and influenza sialidases; test: High-throughput substrate specificity assay with sialyl GalβpNPs (A405 nm); type: biochemical, bacteria, influenza A and B viruses; conditions: for cleavage by sialidases, selectivity: low and high enzyme-concentration assay conditions, Example 3
[6] = biological target: T2, PmST1 WT (sialidase activity of α2-3-sialyltransferase 1 in the presence of CMP) (Pasteurella multocida, UniProt Q15KI8); test: biochemical; conditions: for inhibition at 8 µM: read-out: percent inhibition against PmST1 WT; for percent inhibition against PmST1 WT: inhibitor 8.0 μM, in the presence of CMP, Table 5
T2 construct: made in house

[7] = tested on: N1-Vic19 (IAV neuraminidase); test: Fluorescence-based inhibition assay (substrate Neu5Acα2-3GalβMU, β-galactosidase coupled); type: biochemical, influenza A virus A/Victoria/2570/2019 (H1N1); conditions: for percentage inhibition against N1-Vic19: inhibitor 8.0 μM, Example 3, Table 4
[8] = biological target: NB-Phu13 (IBV neuraminidase) (Influenza B virus, UniProt A0A1S5RAG6); test: as above; type: biochemical, influenza B virus B/Phuket/3073/2013; conditions: for inhibition at 8 µM: read-out: percentage inhibition against NB-Phu13; for percentage inhibition against NB-Phu13: inhibitor 8.0 μM, Example 3, Table 4
[9] = biological target: T3, SpNanA (sialidase) (Streptococcus pneumoniae, UniProt P62575); test: as above; type: biochemical; conditions: for inhibition at 8 µM: read-out: percent inhibition against SpNanA; for percent inhibition against SpNanA: inhibitor 8.0 μM, Table 5
T3 construct: made in house

[10] = biological target: N2-Dar21 (IAV neuraminidase) (Influenza A virus, UniProt A0A193ACB1); test: as above; type: biochemical, influenza A virus A/Darwin/9/2021 (H3N2); conditions: for inhibition at 8 µM: read-out: percentage inhibition against N2-Dar21; for percentage inhibition against N2-Dar21: inhibitor 8.0 μM, Example 3, Table 4
[11] = inhibitor 8.0 μM, substrate Neu5Acα2-3GalβMU 8.0 μM, Example 2, Table 2
[12] = substrate Neu5Acα2-3GalβMU 8.0 μM, Example 2, Table 2
[13] = inhibitor 8.0 μM, substrate Neu5Acα2-3GalβMU 8.0 μM, Example 2, Table 2, read-out: Percentage inhibition against NB-Aus21 (IBV)
[14] = inhibitor 8.0 μM, Example 3, Table 4, read-out: percentage inhibition against NB-NB-Aus21
[15] = substrate Neu5Acα2-3GalβMU 8.0 μM, Example 2, Table 2, read-out: Percentage inhibition against hNEU2
[16] = Table 5, read-out: percent inhibition against hNEU2
[17] = read-out: Percentage inhibition against N1-BR18 (IAV), inhibitor 8.0 μM, substrate Neu5Acα2-3GalβMU 8.0 μM, Example 2, Table 2
[18] = read-out: percentage inhibition against N1-BR18, inhibitor 8.0 μM, Example 3, Table 4
[19] = high-concentration enzyme conditions (10-fold, Vc sialidase 4-fold), 1 hour
[20] = high-concentration enzyme conditions, 14 hours
[21] = inhibitor 8.0 μM, Example 3, Table 4

T1 sequence (Q9Y3R4 whole entry): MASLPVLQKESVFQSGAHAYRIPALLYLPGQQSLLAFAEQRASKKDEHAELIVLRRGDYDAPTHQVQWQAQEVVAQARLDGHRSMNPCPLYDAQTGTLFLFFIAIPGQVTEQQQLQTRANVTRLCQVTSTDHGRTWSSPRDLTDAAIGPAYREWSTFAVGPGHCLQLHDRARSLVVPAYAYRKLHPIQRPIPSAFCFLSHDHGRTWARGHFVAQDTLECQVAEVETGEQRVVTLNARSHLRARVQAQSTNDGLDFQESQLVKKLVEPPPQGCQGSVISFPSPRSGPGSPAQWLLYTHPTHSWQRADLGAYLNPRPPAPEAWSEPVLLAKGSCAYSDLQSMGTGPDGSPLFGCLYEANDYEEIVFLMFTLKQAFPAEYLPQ

SMILES | Percentage inhibition against NB-Aus21 (IBV) [1, 11] [%] | Percentage inhibition against hNEU2 [2, 12] [%] | Percentage inhibition against N1-BR18 (IAV) ([3]; Example 2, Table 2) [%] | inhibition at 8 µM [4] [%] | inhibition at 8 µM [1, 13] [%] | inhibition at 8 µM [1, 14] [%] | inhibition at 8 µM [2, 15] [%] | inhibition at 8 µM [2, 16] [%] | inhibition at 8 µM [3, 17] [%] | inhibition at 8 µM [3, 18] [%] | inhibition at 8 µM [6] [%] | percentage inhibition against N1-Vic19 [7] [%] | inhibition at 8 µM [8] [%] | inhibition at 8 µM [9] [%] | inhibition at 8 µM [10] [%] | other results
CC(=O)N[C@H]1[C@H]([C@H](O)[C@H](O)CO)OC(O)(C(=O)O)C[C@@H]1NC(=N)N (stereo partly shown) [4-Guanidino-Neu5Ac (9), 4-guanidino-Neu5Ac] | 51.0 ± 0.1 | 3.3 ± 0.6 | 76.4 ± 4.9 |  |  |  |  |  |  |  |  |  |  |  |  | 
CC(=O)N[C@H]1[C@H]([C@H](O)[C@H](O)CO)OC(O)(C(=O)O)C[C@@H]1N=[N+]=[N-] (stereo partly shown) [4N3Neu5Ac (7), 4-azido-Neu5Ac] | 37.5 ± 4.1 | 3.0 ± 0.8 | 0.0 ± 4.5 |  |  |  |  |  |  |  |  |  |  |  |  | 
CC(=O)N[C@@H]1C(N=[N+]=[N-])C[C@](OC2C(O)[C@H](Oc3ccc([N+](=O)[O-])cc3)OC(CO)[C@@H]2O)(C(=O)O)OC1[C@H](O)[C@H](O)CO (stereo partly shown) [4N3Neu5Acα2-3GalβpNP] |  |  |  | 0.1 | 22 ± 3.7 | 3.8 | 0 | 0 | 0 | 2.6 | 24 ± 6.9 | 1.2 | 0.9 | 0.6 ± 2.7 | 0.8 | cleavage by sialidases [5, 19]: completely cleaved; cleavage by sialidases [5, 20]: selectively by influenza virus NAs; cleavage by sialidases, selectivity [5]: selectively cleaved by all influenza NAs tested but not human NEU2 or bacterial sialidases; cleavage by sialidases ([5]; low-concentration enzyme conditions, 30 minutes, 37° C.): cleaved off selectively by influenza virus NAs only
CC(=O)N[C@@H]1C(N=[N+]=[N-])C[C@](OCC2O[C@@H](Oc3ccc([N+](=O)[O-])cc3)C(O)C(O)[C@H]2O)(C(=O)O)OC1[C@H](O)[C@H](O)CO (stereo partly shown) [4N3Neu5Acα2-6GalβpNP] |  |  |  | 0 | 23 ± 3.6 | 1.4 | 0 | 0 | 0 | 0.2 | 41.3 ± 20.3 | 3.9 | 2.6 | 11.6 ± 6.7 | 1 | cleavage by sialidases [5, 19]: low percentage; cleavage by sialidases [5, 20]: selectively by influenza virus NAs; cleavage by sialidases, selectivity [5]: observed only under the high-enzyme-concentration assay conditions
CC(=O)N[C@H]1[C@H]([C@H](O)[C@H](O)CO)OC(C(=O)O)=C[C@@H]1NC(C)=O [4NAcNeu5Ac2en] | 21.3 ± 0.2 | 2.1 ± 2.5 | 0.0 ± 2.5 |  |  |  |  |  |  |  |  | 0.7 |  |  |  | percentage inhibition against N2-Kan17 [4]: 6.1%; percentage inhibition against NB-NB-Aus21 [1, 21]: 1.4%; percent inhibition against hNEU2 ([2]; Table 5): 2.1 ± 2.5%; percentage inhibition against N1-BR18 ([3]; Example 3, Table 4): 2.5%; percent inhibition against PmST1 WT [6]: 7.1 ± 0.7%; percentage inhibition against NB-Phu13 [8]: 0.6%; percent inhibition against SpNanA [9]: 0.5 ± 6.5%; percentage inhibition against N2-Dar21 [10]: 2.4%
CC(=O)N[C@H]1[C@H]([C@H](O)[C@H](O)CO)OC(O)(C(=O)O)C[C@@H]1NC(C)=O (stereo partly shown) [4NAcNeu5Ac (3), 4NAcNeu5Ac] | 27.9 ± 10.1 | 3.0 ± 1.0 | 11.5 ± 22.7 |  |  |  |  |  |  |  |  |  |  |  |  | 
CC(=O)NC1C[C@](OCC2O[C@@H](Oc3ccc([N+](=O)[O-])cc3)C(O)C(O)[C@H]2O)(C(=O)O)OC([C@H](O)[C@H](O)CO)[C@@H]1NC(C)=O (stereo partly shown) [4NAcNeu5Acα2-6GalβpNP] |  |  |  | 1 | 21.5 ± 1.7 | 0.4 | 0 | 0 | 0 | 0 | 18.6 ± 4 | 0.4 | 1.5 | 4.2 ± 0.8 | 0.4 | 
CC(=O)N[C@H]1[C@H]([C@H](O)[C@H](O)CO)OC(C(=O)O)=C[C@@H]1N [4NH2Neu5Ac2en, 4-amino-2,3-dehydro-N-acetylneuraminic acid, reference compound] | 98.3 ± 0.1 | 0.0 ± 6.6 | 93.6 ± 0.2 |  |  |  |  |  |  |  |  | 95.9 |  |  |  | percentage inhibition against N2-Kan17 [4]: 91.3%; percentage inhibition against NB-NB-Aus21 [1, 21]: 97.4%; percent inhibition against hNEU2 ([2]; Table 5): 0.0 ± 6.6%; IC50 ([3]; fluorescence-based inhibition assay, Example 2, Table 3, listed as 4NH2Neu5 Ac2en): 490 nM; IC50 ([3]; fluorescence-based inhibition assay, Example 2, Table 3): 490 nM; percentage inhibition against N1-BR18 ([3]; Example 3, Table 4): 94.9%; percent inhibition against PmST1 WT [6]: 9.8 ± 1.2%; percentage inhibition against NB-Phu13 [8]: 91.2%; percent inhibition against SpNanA [9]: 7.9 ± 2.6%; percentage inhibition against N2-Dar21 [10]: 94.6%
CC(=O)N[C@H]1[C@H]([C@H](O)[C@H](O)CO)OC(O)(C(=O)O)C[C@@H]1N (stereo partly shown) [4NH2Neu5Ac (8), 4-amino-4-deoxy-N-acetylneuraminic acid] |  |  |  |  | 41.8 ± 2.8 |  | 2.2 ± 1.2 |  | 28.6 ± 24.5 |  |  |  |  |  |  | 
CC(=O)N[C@H]1[C@H]([C@H](O)[C@H](O)CO)OC(C(=O)O)=C[C@@H]1N=[N+]=[N-] [Compound 4N3Neu5Ac2en, 4N3Neu5Ac2en] | 82.8 ± 1.7 | 3.3 ± 0.6 | 40.7 ± 2.7 |  |  |  |  |  |  |  |  | 39.6 |  |  |  | percentage inhibition against N2-Kan17 [4]: 18.3%; percentage inhibition against NB-NB-Aus21 ([1]; 8 µM): 78.8±3.7%; IC50 ([1]; Example 3, Table 6, read-out: IC50 against NB-NB-Aus21): 1500 ± 100 nM; percent inhibition against hNEU2 ([2]; Table 5): 3.3 ± 0.6%; IC50 ([3]; Example 3, Table 6): 4400 ± 200 nM; percentage inhibition against N1-BR18 ([3]; Example 3, Table 4): 39.2%; percent inhibition against PmST1 WT [6]: 15.4 ± 5.0%; IC50 ([7]; Example 3, Table 6, read-out: IC50 against N1-Vic19): 6200 ± 400 nM; IC50 ([8]; Example 3, Table 6, read-out: IC50 against NB-Phu13): 1400 ± 100 nM; percentage inhibition against NB-Phu13 [8]: 75.6±1.6%; percent inhibition against SpNanA [9]: 3.0 ± 1.3%; percentage inhibition against N2-Dar21 [10]: 22.1%
CC(=O)N[C@H]1[C@H]([C@H](O)[C@H](O)CO)OC(O)(C(=O)O)C[C@@H]1O (stereo partly shown) [Neu5Ac (1), N-Acetylneuraminic acid, reference compound] |  |  |  |  | 20.2 ± 2.6 |  | 1.7 ± 0.5 |  | 5.2 ± 5.3 |  |  |  |  |  |  | 
CC(=O)N[C@@H]1C(O)C[C@](OC2C(O)[C@H](Oc3ccc([N+](=O)[O-])cc3)OC(CO)[C@@H]2O)(C(=O)O)OC1[C@H](O)[C@H](O)CO (stereo partly shown) [Neu5Acα2-3GalβpNP, reference compound] |  |  |  | 0.1 | 25.6 ± 2.3 | 0.5 | 0 | 0 | 2.3 ± 1.2 | 1.8 | 12.4 ± 2.2 | 3.3 | 0.7 | 17.1 ± 6.1 | 0.9 | 
CC(=O)N[C@@H]1C(O)C[C@](OCC2O[C@@H](Oc3ccc([N+](=O)[O-])cc3)C(O)C(O)[C@H]2O)(C(=O)O)OC1[C@H](O)[C@H](O)CO (stereo partly shown) [Neu5Acα2-6GalβpNP, reference compound] |  |  |  | 0.4 | 25.8 ± 2.1 | 0.2 | 0 | 0 | 0 | 3.5 | 14.6 ± 6.4 | 1.4 | 0.8 | 5.8 ± 6.8 | 0.8 | 
